Here are results for 32 molecules from US8772316B2, “Substituted 6,7-dialkoxy-3-isoquinolinol derivatives as inhibitors of phosphodiesterase 10 (PDE10A)” (Allergan, Inc., priority 2011, dated 2014).

Each structure is given as a SMILES string. pIC50: −log10 of the molar value. Where a name gives a salt, the structure may show the parent alone.

In assay [1] the target is PDE10A (Homo sapiens, UniProt Q9Y233). In words: Phosphodiesterase assay (TR-FRET, LANCE cAMP kit). It counts as biochemical. The following applies: PDE10A (BPS Bioscience) 200 pg/well, biotin-cAMP substrate, 60 min at room temperature. The procedure:
(§1) The PDE assay is based on the homogenous time-resolved fluorescence resonance energy transfer (TR-FRET) technology (LANCE® from Perkin Elmer). […] When there is PDE activity, resulting in the degradation of the cyclic nucleotide, the complex is not formed and a decrease in signal is observed.
(§2) The phosphodiesterase assay was developed using the LANCE® cAMP kit (PerkinElmer). The assay buffer contained HBSS with 5 mM HEPES, 0.1% BSA, and 1.5 mM MgCl2, pH 7.4. PDE10A (BPS Bioscience) was used at 200 pg/well (with a specific activity of 3200 pmole/min/μg with assay conditions: 10 mM Tris-HCl, pH7.4, 10 mM MgCl2, 1 mM MnCl2, 200 μM cAMP, 2.5 kU 5′ nucleotidase, 37° C., 20 min). […] Chemical compounds were dissolved in DMSO (final concentration 2% (v/v)).
(§3) In a 384-well plate, 2 μL inhibitor and 3 μL PDE were added to the well, followed by the addition of 5 μl substrate biotinylated cAMP (1:5). After 60 min incubation at room temperature, 10 μL of assay detection mixture was added to the assay plate. After 1 h at room temperature, the signal was measured on EnVision™ (Perkin Elmer).
A general note: In TR-FRET formats the signal depends on donor and acceptor labels being close together.

The target of assay [2] is PDE10A. In words: Phosphodiesterase assay (TR-FRET, LANCE cAMP kit). In kind it is biochemical. The following applies: PDE10A (BPS Bioscience) 200 pg/well, biotin-cAMP substrate, 60 min at room temperature. The procedure:
as §1, §2, §3

PDE10A (Homo sapiens, UniProt Q9Y233), sequence (Q9Y233 whole entry, looked up): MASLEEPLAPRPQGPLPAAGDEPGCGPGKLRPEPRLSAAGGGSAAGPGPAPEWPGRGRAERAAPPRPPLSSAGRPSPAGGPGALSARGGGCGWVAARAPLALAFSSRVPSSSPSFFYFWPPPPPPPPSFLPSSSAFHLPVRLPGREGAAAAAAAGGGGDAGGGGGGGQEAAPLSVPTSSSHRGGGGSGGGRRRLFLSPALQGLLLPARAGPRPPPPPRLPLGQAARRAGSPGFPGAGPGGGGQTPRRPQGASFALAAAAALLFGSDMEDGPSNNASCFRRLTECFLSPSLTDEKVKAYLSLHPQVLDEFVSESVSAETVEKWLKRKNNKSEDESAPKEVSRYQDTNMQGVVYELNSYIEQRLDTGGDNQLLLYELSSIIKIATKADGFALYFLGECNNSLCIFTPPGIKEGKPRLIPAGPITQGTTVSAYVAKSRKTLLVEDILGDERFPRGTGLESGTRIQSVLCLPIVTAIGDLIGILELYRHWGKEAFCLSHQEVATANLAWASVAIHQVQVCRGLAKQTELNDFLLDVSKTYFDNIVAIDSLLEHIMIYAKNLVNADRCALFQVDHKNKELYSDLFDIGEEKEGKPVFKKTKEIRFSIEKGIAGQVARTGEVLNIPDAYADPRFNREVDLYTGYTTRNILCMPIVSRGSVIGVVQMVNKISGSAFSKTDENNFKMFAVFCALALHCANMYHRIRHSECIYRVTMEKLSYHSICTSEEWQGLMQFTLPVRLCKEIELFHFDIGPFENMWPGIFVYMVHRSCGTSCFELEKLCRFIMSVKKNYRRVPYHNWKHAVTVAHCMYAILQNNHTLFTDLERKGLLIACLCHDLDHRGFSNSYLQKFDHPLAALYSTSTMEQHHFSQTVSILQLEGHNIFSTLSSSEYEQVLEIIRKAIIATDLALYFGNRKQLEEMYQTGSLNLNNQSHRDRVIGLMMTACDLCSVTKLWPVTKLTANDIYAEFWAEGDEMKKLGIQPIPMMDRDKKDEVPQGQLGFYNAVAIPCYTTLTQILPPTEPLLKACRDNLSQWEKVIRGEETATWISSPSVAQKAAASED

Regarding `CCCc1nc(O)c(Cc2cc3cc(C)ccc3nc2N(C)C)c2cc(OC)c(OC)cc12` [Compound 36, 4-((2-(Dimethylamino)-6-methylquinolin-3-yl)methyl)-6,7-dimethoxy-1-propylisoquinolin-3-ol dihydrochloride], the pIC50 at PDE10A [1] was 6.16.

For `COc1cc2c(C(C)C)nc(O)c(Cc3cnc4ccccc4c3)c2cc1OC` [Compound 79, 1-Isopropyl-6,7-dimethoxy-4-(quinolin-3-ylmethyl)isoquinolin-3-ol dihydrochloride], the pIC50 at PDE10A [1] was 7.06.

`COc1ccc2cc(Cc3c(O)nc(C)c4cc(OC)c(OC)cc34)cnc2c1` [Compound 29, 6,7-Dimethoxy-4-((7-methoxyquinolin-3-yl)methyl)-1-methylisoquinolin-3-ol dihydrochloride]: on PDE10A [1], the pIC50 is 7.54.

On to `CCCc1nc(O)c(Cc2cc3cc(OCC)c(F)cc3nc2NCC)c2cc(OC)c(OC)cc12` [Compound 86, 4-((6-Ethoxy-2-(ethylamino)-7-fluoroquinolin-3-yl)methyl)-6,7-dimethoxy-1-propylisoquinolin-3-ol dihydrochloride], for which, at PDE10A [1], the pIC50 was 9.52.

On PDE10A [1], `CCOc1ccc2cc(Cc3c(O)nc(C)c4cc(OC)c(OC)cc34)cnc2c1` [Compound 30, 4-((7-ethoxyquinolin-3-yl)methyl)-6,7-dimethoxy-1-methylisoquinolin-3-ol dihydrochloride] gave a pIC50 of 7.68.

As for `COc1cc2c(C)nc(O)c(Cc3cncc(-c4ccccc4)c3)c2cc1OC` [Compound 15, 6,7-Dimethoxy-1-methyl-4-((5-phenylpyridin-3-yl)methyl)isoquinolin-3-ol dihydrochloride], the pIC50 against PDE10A [1] is 7.01.

`CCCNc1nc2ccc(OC)cc2cc1Cc1c(O)nc(CCC)c2cc(OC)c(OC)cc12` [Compound 52, 6,7-dimethoxy-4-((6-methoxy-2-(propylamino)quinolin-3-yl)methyl)-1-propylisoquinolin-3-ol dihydrochloride]: at PDE10A [1], the pIC50 was 8.82.

Consider `CCCc1nc(O)c(Cc2cc3cc(OC)ccc3nc2NCC)c2cc(OC)c(OC)cc12` [Compound 50, 4-((2-(ethylamino)-6-methoxyquinolin-3-yl)methyl)-6,7-dimethoxy-1-propylisoquinolin-3-ol dihydrochloride], for which, on PDE10A [1], the pIC50 is 9.55.

With `CCCc1nc(O)c(Cc2cc3cc(C)ccc3nc2NCC)c2cc(OC)c(OC)cc12` [Compound 35, 4-((2-(Ethylamino)-6-methylquinolin-3-yl)methyl)-6,7-dimethoxy-1-propylisoquinolin-3-ol dihydrochloride], the pIC50 at PDE10A [1] is 8.82.

`COc1cc2c(C)nc(O)c(Cc3cccc(Oc4ccccc4)c3)c2cc1OC` [Compound 4, 6,7-dimethoxy-1-methyl-4-(3-phenoxybenzyl)isoquinolin-3-ol hydrochloride] showed a pIC50 against PDE10A [1] of 6.85.

Regarding `CCNc1nc2cc(F)c(OC)cc2cc1Cc1c(O)nc(CC)c2cc(OC)c(OC)cc12` [Compound 82, 1-Ethyl-4-((2-(ethylamino)-7-fluoro-6-methoxyquinolin-3-yl)methyl)-6,7-dimethoxyisoquinolin-3-ol dihydrochloride], at PDE10A [2], the negative-log IC50 (pIC50) is 8.85.

`CCCc1nc(O)c(Cc2cc3cc(OC)ccc3nc2NCCOC)c2cc(OC)c(OC)cc12` [Compound 76, 6,7-dimethoxy-4-((6-methoxy-2-(2-methoxyethylamino)quinolin-3-yl)methyl)-1-propylisoquinolin-3-ol dihydrochloride] showed a pIC50 on PDE10A [2] of 8.64.

For `CCc1nc(O)c(Cc2ccc3nc(C)ccc3c2)c2cc(OC)c(OC)cc12` [Compound 81, 1-Ethyl-6,7-dimethoxy-4-((2-methylquinolin-6-yl)methyl)isoquinolin-3-ol dihydrochloride], the pIC50 on PDE10A [2] was 8.12.

Consider `CNc1nc2ccc(C)cc2cc1Cc1c(O)nc(C)c2cc(OC)c(OC)cc12` [Compound 33, 6,7-Dimethoxy-1-methyl-4-((6-methyl-2-(methylamino)quinolin-3-yl)methyl)isoquinolin-3-ol dihydrochloride], for which the pIC50 against PDE10A [2] was 7.89.

`CCc1nc(O)c(Cc2cc3cc4c(cc3nc2NC)OCO4)c2cc(OC)c(OC)cc12` [Compound 61, 1-ethyl-6,7-dimethoxy-4-((6-(methylamino)-[1,3]-dioxolo[4,5-g]quinolin-7-yl)methyl)isoquinolin-3-ol dihydrochloride] showed a pIC50 on PDE10A [2] of 8.66.

The molecule `COc1cc2c(C)nc(O)c(Cc3cnc4cccc(OC)c4c3)c2cc1OC` [Compound 27, 6,7-Dimethoxy-4-((5-methoxyquinolin-3-yl)methyl)-1-methylisoquinolin-3-ol dihydrochloride] had a negative logarithm of the IC50 (pIC50) at PDE10A [2] of 7.77.

Molecule `COc1cc2c(C)nc(O)c(Cc3ccc4ccccc4n3)c2cc1OC` [Compound 23, 6,7-dimethoxy-1-methyl-4-(quinolin-2-ylmethyl)isoquinolin-3-ol dihydrochloride] showed a pIC50 on PDE10A [2] of 6.89.

In the case of `CCCc1nc(O)c(Cc2cc3cc(OC)ccc3nc2CC)c2cc(OC)c(OC)cc12` [Compound 66, 4-((2-ethyl-6-methoxyquinolin-3-yl)methyl)-6,7-dimethoxy-1-propylisoquinolin-3-ol dihydrochloride], the pIC50 at PDE10A [2] was 7.80.

At PDE10A [2], `CCc1nc(O)c(Cc2cnc3ccc(OC)cc3c2)c2cc(OC)c(OC)cc12` [Compound 85, 1-ethyl-6,7-dimethoxy-4-((6-methoxyquinolin-3-yl)methyl)isoquinolin-3-ol dihydrochloride] gave a pIC50 of 9.40.

As to `CCCc1nc(O)c(Cc2cc3cc(C)ccc3nc2NC)c2cc(OC)c(OC)cc12` [Compound 34, 6,7-dimethoxy-4-((6-methyl-2-(methylamino)quinolin-3-yl)methyl)-1-propylisoquinolin-3-ol dihydrochloride], the pIC50 against PDE10A [2] is 8.72.

Molecule `COc1ccc(-c2cncc(Cc3c(O)nc(C)c4cc(OC)c(OC)cc34)c2)cc1` [Compound 16, 6,7-dimethoxy-4-((5-(4-methoxyphenyl)pyridin-3-yl)methyl)-1-methylisoquinolin-3-ol dihydrochloride] gave a pIC50 against PDE10A [2] of 7.16.

Consider `COc1cc2c(C)nc(O)c(Cc3cccc(-c4ccccc4)n3)c2cc1OC` [Compound 12, 6,7-dimethoxy-1-methyl-4-((6-phenylpyridin-2-yl)methyl)isoquinolin-3-ol dihydrochloride], for which the pIC50 on PDE10A [2] was 7.03.

`CCNc1nc2ccc(OC)cc2cc1Cc1c(OC(C)=O)nc(CNC(C)=O)c2cc(OC)c(OC)cc12` [Compound 56, 1-(Acetamidomethyl)-4-((2-(ethylamino)-6-methoxyquinolin-3-yl)methyl)-6,7-dimethoxyisoquinolin-3-yl acetate] showed a pIC50 against PDE10A [2] of 6.76.

With `CCCc1nc(O)c(Cc2cnc3ccccc3c2)c2cc(OC)c(OC)cc12` [Compound 74, 6,7-dimethoxy-1-propyl-4-(quinolin-3-ylmethyl)isoquinolin-3-ol hydrochloride], on PDE10A [2], the pIC50 was 8.21.

Take `CCCc1nc(O)c(Cc2cc3cc(OC)c(F)cc3nc2NCC)c2cc(OC)c(OC)cc12` [Compound 70, 4-((2-(Ethylamino)-7-fluoro-6-methoxyquinolin-3-yl)methyl)-6,7-dimethoxy-1-propylisoquinolin-3-ol dihydrochloride]: the pIC50 on PDE10A [2] is 8.62.

For the molecule `CCCCc1nc2ccc(OC)cc2cc1Cc1c(O)nc(CCC)c2cc(OC)c(OC)cc12` [Compound 71, 4-((2-Butyl-6-methoxyquinolin-3-yl)methyl)-6,7-dimethoxy-1-propylisoquinolin-3-ol dihydrochloride], the pIC50 against PDE10A [2] was 7.03.

Take `CCc1nc(O)c(Cc2cc3cc(OC)ccc3nc2N=[N+]=[N-])c2cc(OC)c(OC)cc12` [Compound 68, 4-((2-Azido-6-methoxyquinolin-3-yl)methyl)-1-ethyl-6,7-dimethoxyisoquinolin-3-ol dihydrochloride]: the pIC50 against PDE10A [2] was 6.70.

In the case of `CCCc1nc(O)c(Cc2ccc3ccccc3c2)c2cc(OC)c(OC)cc12` [Compound 20, 6,7-dimethoxy-4-(naphthalen-2-ylmethyl)-1-propylisoquinolin-3-ol hydrochloride], the pIC50 at PDE10A [2] was 7.47.

For the molecule `CCCc1nc(N)c(Cc2ccc3oc4ccccc4c3c2)c2cc(OC)c(OC)cc12` [Compound 65, 4-(dibenzo[b,d]furan-2-ylmethyl)-6,7-dimethoxy-1-propylisoquinolin-3-amine hydrochloride], the pIC50 against PDE10A [2] was 6.01.

In turn, `COc1ccc2nc(NCCNC(C)=O)c(Cc3c(O)nc(C)c4cc(OC)c(OC)cc34)cc2c1` [Compound 73, N-(2-(3-((3-hydroxy-6,7-dimethoxy-1-methylisoquinolin-4-yl)methyl)-6-methoxyquinolin-2-ylamino)ethyl)acetamide dihydrochloride] had a negative-log IC50 (pIC50) on PDE10A [2] of 8.57.

For the molecule `CCCc1nc(O)c(Cc2cc3cc4c(cc3nc2NC)OCO4)c2cc(OC)c(OC)cc12` [Compound 62, 6,7-dimethoxy-4-((6-(methylamino)-[1,3]-dioxolo[4,5-g]quinolin-7-yl)methyl)-1-propylisoquinolin-3-ol dihydrochloride], the pIC50 against PDE10A [2] is 8.96.

As for `CNc1nc2cc(O)c(O)cc2cc1Cc1c(O)nc(C)c2cc(OC)c(OC)cc12` [Compound 59, 3-((3-hydroxy-6,7-dimethoxy-1-methylisoquinolin-4-yl)methyl)-2-(methylamino)quinoline-6,7-diol dihydrochloride], the pIC50 against PDE10A [2] was 7.57.

As a reminder, the pIC50 is the IC50 on a negative log10 scale, so that one unit is a factor of ten. Read a low pIC50 as a high IC50.
